90 compounds from a melting point compilation (Tetko et al.; mined from patent text by program, amines drawn as free bases though some values may be those of a salt) can be followed below.

In general, melting point refers to the temperature of the solid-liquid transition.

Molecules are shown by their SMILES. Where only a bound is given, the exact number is not on record here.

The compound `CCN1C(=O)C(C)(C)C(=O)N(C)c2cc(CN(CCn3ccc4oc(C)cc4c3=O)Cc3cccc(C=O)c3)ccc21` had a melting point of 79 to 84 °C.

`COC(=O)c1ccc(N)cn1` returned a melting point of 147 to 150 °C.

`CCOP(=O)(CC(Nc1cccnc1)c1cc(C)c(O)c(OC)c1)OCC` (stereo not given) showed a melting point of 156 to 158 °C.

The compound `COC(=O)COc1ccc(C(=O)NC(=O)Nc2ccc(C#N)cc2)cc1` gave a melting point of 204 to 207 °C.

`COC(=O)c1nc(N(C)C)ccc1OCc1ccccc1` came in with a melting point of 71.5 to 73 °C.

The compound `CC1(C)[C@@H](CN2CCCC2)CC[C@@]1(C)NCC(=O)N1C[C@@H](F)C[C@H]1C#N` registered a melting point of 108 to 112 °C.

The compound `C=CCn1c(N)c(N=O)c(=O)n(CC=C)c1=O` came in with a melting point of 170 to 180 °C.

The compound `O=C1CCC(N2Cc3c(OCc4ccc(Cn5cnc(C(F)(F)F)c5)cc4)cccc3C2=O)C(=O)N1` (stereo not given) came in with a melting point of 148 to 150 °C.

In turn, `CC(C)(C)OC(=O)N1CC2CC(CN(CCCOc3ccc(C#N)cc3O)C2)C1` yielded a melting point of 127 to 130 °C.

Turning to `CC(C(=O)O)c1cc(Cl)c(N)cc1Cl` (stereo not given), the melting point lay within 140 to 141 °C.

In turn, `OC1CSC(Oc2cc(-c3cccnc3F)ccc2Cl)C(O)C1O` (stereo not given) registered a melting point of 165 °C.

As to `Cc1ccc(C(=O)NCCNC(=O)OC(C)(C)C)s1`, the melting point was in the range of 109 to 110 °C.

In turn, `CCc1cccc(C)c1CNc1cc(C(=O)N(C)C)nc2c1nc(C)n2C` yielded a melting point of 133 to 136 °C.

Consider `CC(CCC(=O)NC(C)(C)CO)C1CCC2C3C(=O)CC4CC(O)CCC4(C)C3CCC12C` (stereo not given), for which the melting point is 220 to 222 °C.

Compound `CC(C)(Sc1cc(C(C)(C)C)c(O)c(C(C)(C)C)c1)Sc1cc(C(C)(C)C)c(OCCO)c(C(C)(C)C)c1` gave a melting point of 146 to 147 °C.

As to `CN(C)c1ccc(-c2cc3nccnc3[nH]2)cc1CCC(=O)O`, the melting point lay in the range of 269 to 271 °C.

Consider `CCOC(=O)c1cc2cc(Br)ccc2[nH]1`, for which the melting point was 160 to 164 °C.

Turning to `N#Cc1cc(C(F)(F)F)[nH]c1-c1ccc(Cl)c([N+](=O)[O-])c1`, the melting point was 258 to 260 °C.

With `COc1cc2c(cc1OC)C(c1cccc([N+](=O)[O-])c1)=NN=C(C)C2`, the melting point fell in the range of 196 to 198 °C.

For `C=Cc1cccc(OC)c1[N+](=O)[O-]`, the melting point was in the range of 55 to 56 °C.

Turning to `CCCCCCCCCCCCCCCCOCC(CO)Oc1ccon1` (stereo not given), the melting point was 50 to 51 °C.

The compound `Clc1ccc(OCc2ccccc2)nn1` had a melting point of 77 to 78 °C.

As to `FC(F)(F)c1cccc(CSc2nnc(-c3ccc4ncc(-c5ccccn5)n4c3)o2)c1`, the melting point fell in the range of 181 to 182 °C.

Regarding `CS(=O)(=O)c1ccc(-c2cnn(CC(F)(F)F)c(=O)c2NC2CCCC2)cc1`, the melting point lay in the range of 134 to 139 °C.

As for `CCc1ccc(N(Cc2ccc(N3CCOCC3)cc2)C(=O)C2CCCc3c(O)cccc32)cc1` (stereo not given), the melting point was determined as 200 °C.

`O=C1Cc2cc(NCCCc3ccccc3)ccc2N1` had a melting point of 120 to 122 °C.

`CC(C)(C)OC(=O)NC(=N)NC(=O)OCc1ccccc1` displayed a melting point of 125 to 126 °C.

Compound `Cc1nc2c(N)nc3ccccc3c2n1CCCCNC(=O)C(C)C` showed a melting point of 160 to 161 °C.

`Cn1nc(-c2cc(F)c([N+](=O)[O-])cc2F)c(Br)c1C(F)(F)F` returned a melting point of 45.5 °C.

The compound `COc1c(O)cnc(CNc2nc(C)nc(C)c2Cl)c1C` had a melting point of 220 to 224 °C.

`Cc1c(C)c2c(c(C)c1N)CC(C)(Cc1ccccc1)O2` (stereo not given): the melting point was 68 to 69 °C.

Compound `COC(=O)c1ccc(=O)[nH]c1` gave a melting point of 166 to 172 °C.

For `Brc1ccc(CCCCn2ccnc2)cc1`, the melting point came to 40 °C.

Consider `O=CN(O)C(CS(=O)(=O)c1ccc(-c2ccc(OC(F)(F)F)cc2)cc1)c1ccccn1` (stereo not given), for which the melting point was 116 to 118 °C.

Compound `Cc1ccc(N2C(=O)C(O)=C(C(=O)c3ccc(C(C)C)cc3)C2c2ccc(Cn3cnnn3)cc2)nn1` (stereo not given) came in with a melting point above 300 °C.

In turn, `COc1cc(Sc2ccccc2CO)ccc1Cl` came in with a melting point of 78 to 80 °C.

Take `NS(=O)(=O)c1cccc(-c2cn(-c3nc(-c4cccc(Cl)c4)cc(C(F)(F)F)n3)cn2)c1`: the melting point amounted to 204 °C.

Compound `Cc1ccc(S(=O)(=O)N(c2ccc(C#N)cc2[N+](=O)[O-])C(C)C)cc1` returned a melting point of 125 to 126 °C.

`O=C1C(=O)c2ccccc2C2=C1SCC1(CCCNC1)O2` (stereo not given) came in with a melting point of 128 to 134 °C.

Compound `OC(CCc1ccccc1)c1cnc2sc3ccccc3n12` (stereo not given) showed a melting point of 174 to 175 °C.

In the case of `COc1ccccc1OCCN(Cc1ccccc1)C(=O)CCc1c[nH]c2ccccc12`, the melting point was in the range of 46.5 to 47.5 °C.

For the compound `Cc1c(F)c(F)c(C(=O)N[C@@H](C)C(C)C)c(F)c1F`, the melting point lay in the range of 146 to 147 °C.

Turning to `CCOc1ccc(C(=O)COC(C)=O)cc1`, the melting point lay in the range of 81 to 82 °C.

`Cc1cc(Br)c2c(c1)N(S(=O)(=O)c1ccc(Cl)cc1)CCO2`: the melting point lay within 143 to 145 °C.

Compound `CCCCc1nc2c(N)nc3ccccc3c2n1CCN1C(=O)NC2CSC(CCCCC(N)=O)C21` (stereo not given) registered a melting point of 124 to 126 °C.

The compound `O=C(O)c1cc(NCc2ccc([N+](=O)[O-])cc2)ccc1O` gave a melting point of 211 to 212 °C.

For `COc1ccc(C(=O)C2(C)CCC(C(=O)O)C2(C)C)c(OC)c1` (stereo not given), the melting point turned out to be 134 °C.

Compound `C(=C\c1cc(/C=C/c2ccc3cc[nH]c3c2)n[nH]1)/c1ccc(Oc2ccccc2)cc1` yielded a melting point of 175 to 182 °C.

On to `Cc1ccc(S(=O)(=O)Nc2cccc3ccc(Oc4ccc5nc(COc6ccc(CC7SC(=O)NC7=O)cc6)n(C)c5c4)cc23)cc1` (stereo not given), for which the melting point lay in the range of 137 to 144 °C.

Take `Cc1cc(C)cc(Oc2c(CO)c(C)[nH]c(=O)c2I)c1`: the melting point lay within 248 to 250 °C.

For the compound `CC(C)(C)S(=O)(=O)CS(=O)(=O)C(C)(C)C`, the melting point was 152 to 155 °C.

`O=C(O)c1c2ccccc2nc2ccc3ccccc3c12` registered a melting point of 169 to 170 °C.

With `Cc1ccc(-n2c3ccccc3c3ccccc32)cc1`, the melting point was in the range of 104 to 106 °C.

The compound `O=C(O)Cc1cncc(Cc2nc3c(F)c(F)cc(F)c3s2)c1` had a melting point of 196 to 197 °C.

For the compound `COc1cc(C)c(C(=O)c2c(OC)ncc(Br)c2Cl)c(OC)c1OC`, the melting point was 84 to 87 °C.

In the case of `Cc1ccn(Cc2ccc(Cl)c(Cl)c2)c(=O)c1C#N`, the melting point was 178 to 180 °C.

With `CSc1c2c3c(cccc3n1CO)C1C=C(C)CN(C)C1C2` (stereo not given), the melting point is 133 to 135 °C.

In turn, `COC(=O)c1c(C(=O)OC)c2n(c1C)Cc1c(c3ccccc3n1C)C2` came in with a melting point of 240 to 241 °C.

As to `Nc1ncnn1C(=S)NC1CCCCC1`, the melting point lay in the range of 168 to 170 °C.

For `COCCOc1cc(/C=C/C(=O)NS(=O)(=O)CCC(C)C)n(Cc2ccc(Cl)cc2Cl)n1`, the melting point is 110 to 114 °C.

`CC(C)(C)OC(=O)Nc1ccc(-c2cccc(F)c2F)cc1[N+](=O)[O-]` showed a melting point of 93 °C.

Turning to `CC(C)C(C(=O)O)N(C)S(=O)(=O)c1ccc(-c2ccc(NC(=O)c3cc4ccccc4o3)cc2)cc1` (stereo not given), the melting point lay in the range of 237 to 239 °C.

Turning to `CNC(=S)NS(=O)(=O)c1cc(CCNC(=O)/C=C/c2cccs2)ccc1-c1ccco1`, the melting point lay within 175 to 176 °C.

As for `Nc1nn(-c2ccccc2)c(N)c1CN1CCN(c2cccc3c2OCCO3)CC1`, the melting point was in the range of 84 to 87 °C.

`CC(C)COC(=O)Sc1ccc(-c2ccccc2)cc1`: the melting point fell in the range of 78 to 79 °C.

In turn, `NC(=O)N(O)C[C@@H]1C[C@H]1c1cccc(Oc2ccncc2)c1` (relative stereo) returned a melting point of 130 to 132 °C.

Regarding `CCCCCCCCCCCCNc1nc(NCC(O)C2CC(C)(C)NC(C)(C)C2)nc(NCC(O)C2CC(C)(C)NC(C)(C)C2)n1` (stereo not given), the melting point lay within 107 to 109 °C.

Compound `Cc1cc2c3c(c1)c1c(n3C(c3ccccc3)CO2)CCCC1=O` (stereo not given) showed a melting point of 171 °C.

Regarding `CCOc1ccc(-c2nnc(C#N)o2)cc1`, the melting point came out at 110 °C.

In turn, `COc1ccc(C(O)CNCc2cccc(OC)c2C)cc1OC` (stereo not given) had a melting point of 135 to 136 °C.

With `CC(C)(C)n1c(=O)c2c(-c3ccc(F)cc3)ncn2c2ccccc21`, the melting point lay in the range of 135 to 137 °C.

The compound `CCCc1nn(-c2ccc(C(F)(F)F)cn2)cc1CCCOc1c(CC(=O)O)cccc1OC` returned a melting point of 122 to 123 °C.

In the case of `O=C(NCCSCc1ccccc1)c1cnccc1C(F)(F)F`, the melting point fell in the range of 86 to 88 °C.

As to `Cc1cc(S(=O)(=O)Nc2cccnc2Nc2ccccc2)c(C)cc1Cl`, the melting point lay within 153 to 154 °C.

In the case of `COC(=O)CON=C(C(=O)O)C(=O)CCl`, the melting point fell in the range of 127 to 128 °C.

Compound `COC(=O)c1ccc2c(c1)C(=O)CCC2` came in with a melting point of 170 to 172 °C.

As to `CNC(=O)CCCCCc1cccc2cncn12`, the melting point is 118 to 122 °C.

With `CCOC(=O)c1c(C(F)(F)F)nc(C(F)(F)F)c(C(=O)OCC)c1C`, the melting point is 55 to 58 °C.

Turning to `COc1c(C)oc2c(-n3c(=O)cc(C(F)(F)F)n(C)c3=O)c(F)cc(Cl)c12`, the melting point lay in the range of 57 to 60 °C.

In the case of `CCCCCNC(=S)CC(=O)O`, the melting point lay within 72 to 76 °C.

`CCOC(=O)/C=C/c1ccc(OCC)nc1Oc1ccc(Cl)cc1Cl`: the melting point lay within 90 to 92 °C.

Regarding `CC1(c2onc(-c3ccc(O)cc3)c2-c2ccccc2)CC1`, the melting point lay within 212 to 214 °C.

In turn, `CON(C)C(=O)c1cc(Br)cnc1N1CCCC1` registered a melting point of 94 to 96 °C.

On to `CCCCCCCCCCCCCCOc1cc(C)ccc1C`, for which the melting point fell in the range of 36.9 to 37.9 °C.

Turning to `CC(C)(C)OC(=O)N1CCc2ccc3ccn(CCOc4ccccc4F)c3c2CC1`, the melting point was 132 to 134 °C.

`O=S(=O)(Nc1cccc(CCOCc2ccc(-c3ccc(C(F)(F)F)cc3)cc2)c1)C(F)(F)F` gave a melting point of 98 to 100 °C.

`O=C(NCCc1ccncc1)c1[nH]c2ccc(Cl)cc2c1S(=O)(=O)c1ccccc1` showed a melting point of 258 to 260 °C.

The compound `NC(=O)NCCN1CCC(O[N+](=O)[O-])CC1` gave a melting point of 114 to 116 °C.

Turning to `COc1cc2c3c4c(c(-c5ccccc5)cc3n(C)c2cc1OS(=O)(=O)C(F)(F)F)C(=O)NC4=O`, the melting point is 244 to 246 °C.

As to `CCOc1ccc(C2SC(=N)NC2=N)cc1OCC` (stereo not given), the melting point fell in the range of 185 to 190 °C.
